Article PMC6321233, “Cysteines and Disulfide-Bridged Macrocyclic Mimics of Teixobactin Analogues and Their Antibacterial Activity Evaluation against Methicillin-Resistant Staphylococcus Aureus (MRSA)” (Pharmaceutics, 2018)
In brackets after ≈: the same amount, converted by molar mass. Where two headings read alike, the source gives them in different places.

Assays:
S. aureus ATCC 29213 [1] = test: MIC, broth microdilution, Methicillin-sensitive S. aureus ATCC 29213; format: cell-based, Staphylococcus aureus; details: Mueller Hinton broth, 37 °C, 24 h, peptides in DMSO with 0.002% polysorbate 80, 128-0.25 µg/mL two-fold dilutions, no visible growth, runs in triplicate
Method: (§1) For minimum inhibitory concentration (MIC) assays, all peptides were dissolved in DMSO containing 0.002% polysorbate 80. Bacteria was grown in Mueller Hinton broth (Oxoid) in triplicate. All incubations were at 37 °C. Dilutions were carried out in triplicate, and 100 µL of autoclaved Mueller Hinton broth was added to wells 2–11 in a 96-well plate. 200 µL of the peptide was added to well one at a concentration of 128 µg/mL. 100 µL of peptide in well one was taken up and pipetted into well two. The mixture was then mixed via pipetting before 100 µL was taken up and pipetted into well three. This process was repeated up to well 10. Once the peptide was added to well 10, 100 µL was taken up and then discarded, ensuring that well 11 had no peptide present. Thus, the concentrations (in µg/mL) were: 128, 64, 32, 16, 8, 4, 2, 1, 0.5, 0.25, and 0 (no peptide present). Each well was then inoculated with 100 µL of bacteria that had been diluted to an OD 600 nm of 0.1. This was repeated three times. The 96-well plates were then incubated at 37 °C for 24 h. […]
(§2) Antibacterial activity of the teixobactin analogues was assessed against Methicillin-resistant Staphylococcus aureus (MRSA ATCC 33591, MRSA ATCC […]) and Methicillin-sensitive Staphylococcus aureus. The minimum inhibitory concentration was measured using the broth microdiluation method (see Experimental Section 2.4). […]

MRSA ATCC 700699 [2] = test: MIC, broth microdilution, MRSA ATCC 700699; format: cell-based, Staphylococcus aureus; details: Mueller Hinton broth, 37 °C, 24 h, peptides in DMSO with 0.002% polysorbate 80, 128-0.25 µg/mL two-fold dilutions, lowest concentration with no visible growth, runs in triplicate
Method: as §1, §2

MRSA = details: introduction, strain not named; cited from earlier work
Source text: Brimble et al. have also reported on the synthesis and antibacterial activity of teixobactin analogues by replacing L-allo-enduracididine with isosteres. Furthermore, teixobactin analogues with lipid tails were reported by Jamieson et al ...

S. aureus ATCC 29213 [3] = details: reference peptide marked with superscript 12 in Table 1; cited from earlier work
Source text: MIC: Minimum Inhibitory Concentration in µg/mL; all the MIC runs in triplicate. (-) = Not evaluated. | column: S. aureus ATCC 29213

MRSA ATCC 33591 = details: reference peptides marked with superscript 12 in Table 1; cited from earlier work
Source text: MIC: Minimum Inhibitory Concentration in µg/mL; all the MIC runs in triplicate. (-) = Not evaluated. | column: MRSA ATCC 33591

MRSA ATCC 700699 [4] = details: reference peptide marked with superscript 12 in Table 1; cited from earlier work
Source text: MIC: Minimum Inhibitory Concentration in µg/mL; all the MIC runs in triplicate. (-) = Not evaluated. | column: MRSA ATCC 700699

## CN[C@H](CC(C)C)C(=O)N[C@H]1C(=O)N[C@@H](CC(N)=O)C(=O)N[C@H]2C(=O)N[C@H]3C(=O)N[C@H](C(=O)N[C@H](C(=O)O)c4cc(O)cc(O)c4-c4cc3ccc4O)[C@H](O)c3ccc(c(Cl)c3)Oc3cc2cc(c3O[C@@H]2O[C@H](CO)[C@@H](O)[C@H](O)[C@H]2O[C@H]2C[C@](C)(N)[C@H](O)[C@H](C)O2)Oc2ccc(cc2Cl)[C@H]1O [Vancomycin]
S. aureus ATCC 29213 [1]
  MIC: Minimum Inhibitory Concentration, S. aureus ATCC 29213: 4 µg/mL (≈ 2.76 µM)
MRSA ATCC 700699 [2]
  MIC: Minimum Inhibitory Concentration, MRSA ATCC 700699: 2 µg/mL (≈ 1.38 µM)

## Ile10-teixobactin
MRSA
  activity against MRSA compared with teixobactin (in words): to the same extent as teixobactin

## Leu10-teixobactin
MRSA
  activity against MRSA compared with teixobactin (in words): to the same extent as teixobactin
S. aureus ATCC 29213 [3]
  MIC: Minimum Inhibitory Concentration, S. aureus ATCC 29213: 0.062 µg/mL
MRSA ATCC 33591
  MIC: Minimum Inhibitory Concentration, MRSA ATCC 33591: 0.25 µg/mL
MRSA ATCC 700699 [4]
  MIC: Minimum Inhibitory Concentration, MRSA ATCC 700699: 0.25 µg/mL

## Teixobactin
MRSA ATCC 33591
  MIC: Minimum Inhibitory Concentration, MRSA ATCC 33591: 0.25 µg/mL
